Where “and” joins values, the source holds several entries; their conditions need not be identical. Identical values can stand only once.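 96-well plates; 48 h exposure; 5 concentrations. Endpoints by linear interpolation between flanking doses. Not reached: highest tested concentration assigned. GI50: concentration for 50% inhibition of growth. TGI marks complete inhibition of growth.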
Tests used:
Experiment in all cases: NCI anticancer screen, dose series, 48 h
[1] = system: OVCAR-4 ovarian
[2] = system: SNB-19 CNS
[3] = system: HCT-116 colon
[4] = system: SK-MEL-2 melanoma
[5] = system: LOX IMVI melanoma
[6] = system: SK-MEL-5 melanoma
[7] = system: SN12C renal
[8] = system: HT29 colon
[9] = system: SF-295 CNS
[10] = system: M14 melanoma

CC(C)n1nc(-c2cc3cc(O)ccc3[nH]2)c2c(N)ncnc21
GI50 [1]: 0.0827 µM | TGI [1]: 0.923 µM | GI50 [2]: 1.52 µM | TGI [2]: 17.9 µM | GI50 [3]: 0.634 µM | TGI [3]: 14.4 µM | GI50 [4]: 0.229 µM | TGI [4]: 1.95 µM | GI50 [5]: 0.309 µM | GI50 [6]: 0.171 µM | TGI [6]: 1.43 µM | GI50 [7]: 0.175 µM | TGI [7]: 6.43 µM | GI50 [8]: 0.465 µM | TGI [8]: 28.7 µM | GI50 [9]: 0.122 µM | TGI [9]: 0.87 µM | GI50 [10]: 0.151 µM | TGI [10]: 1.8 µM

CC(C)(C)c1cc(Br)c(O)c(CN(Cc2cc(C(C)(C)C)cc(Br)c2O)C2CCCCC2)c1
TGI [1]: 22.3 µM | TGI [2]: 27.1 µM | TGI [3]: 25 µM | TGI [4]: 25.8 µM | TGI [5]: 29.8 µM | TGI [6]: 22.8 µM | TGI [7]: 28 µM | TGI [8]: 19.3 µM | TGI [9]: 25.3 µM | TGI [10]: 25.5 µM

COC(=O)/C(=N\Nc1nnc(C)n1N)C(C#N)c1ccc(Cl)cc1 (stereo not drawn)
TGI [1]: > 100 µM | TGI [2]: > 100 µM | TGI [3]: > 100 µM | TGI [4]: > 100 µM | TGI [5]: > 100 µM | TGI [7]: > 100 µM | TGI [8]: > 100 µM | TGI [9]: > 100 µM | TGI [10]: > 100 µM

O=C1C2C3C=C4c5ccccc5N(c5ccccc5)C4(C2C(=O)N1Cc1ccccc1)C1C(=O)N(Cc2ccccc2)C(=O)C31 (stereo not drawn)
TGI [2]: > 100 µM | TGI [3]: > 100 µM | TGI [4]: > 100 µM | TGI [5]: > 100 µM | TGI [7]: > 100 µM | TGI [8]: > 100 µM | TGI [9]: > 100 µM

Cc1cn(C2CC(N(O)Cc3ccccc3)C(CO[Si](C)(C)C(C)(C)C)O2)c(=O)[nH]c1=O (stereo not drawn)
TGI [1]: 83.6 µM and 31.5 µM | TGI [2]: > 100 µM and 33.2 µM | TGI [3]: 34.8 µM and 29.7 µM | TGI [4]: 38.3 µM | TGI [6]: 33.1 µM and 30.2 µM | TGI [7]: 30.6 µM and 29.7 µM | TGI [8]: 52.9 µM and 31.5 µM | TGI [9]: 39.6 µM and 31 µM | TGI [10]: 39 µM and 30.6 µM

CS/C(N)=N\NC(=O)CCC(=O)Nc1ccccc1C(F)(F)F
TGI [1]: > 100 µM | TGI [2]: > 100 µM | TGI [3]: > 100 µM | TGI [4]: > 100 µM | TGI [5]: > 100 µM | TGI [6]: > 100 µM | TGI [7]: > 100 µM | TGI [8]: > 100 µM | TGI [9]: > 100 µM | TGI [10]: > 100 µM

O=C(NC1=CC(=O)c2ccccc2C1=O)c1ccccc1
GI50 [1]: 1.04 µM | TGI [1]: 2.26 µM | GI50 [2]: 2.9 µM | TGI [2]: 16.4 µM | GI50 [3]: 0.409 µM | TGI [3]: 1.6 µM | GI50 [4]: 0.534 µM | TGI [4]: 15.7 µM | GI50 [5]: 1.08 µM | TGI [5]: 2.63 µM | GI50 [6]: 0.399 µM | TGI [6]: 1.48 µM | GI50 [7]: 1.49 µM | TGI [7]: 6.01 µM | GI50 [8]: 2.33 µM | TGI [8]: 4.9 µM | GI50 [9]: 2 µM | TGI [9]: 7.73 µM | GI50 [10]: 0.874 µM | TGI [10]: 4.4 µM

Nn1c(=O)n(Cc2ccccc2)n(-c2ccccc2)c1=O
TGI [1]: > 100 µM | TGI [2]: > 100 µM | TGI [3]: > 100 µM | TGI [4]: > 100 µM | TGI [5]: > 100 µM | TGI [6]: > 100 µM | TGI [7]: > 100 µM | TGI [8]: > 100 µM | TGI [9]: > 100 µM | TGI [10]: > 100 µM

COC(C(O)CO)C(O)C(O)C(=O)NNc1ccccc1 (stereo not drawn)
TGI [2]: > 100 µM | TGI [3]: > 100 µM | TGI [4]: > 100 µM | TGI [5]: > 100 µM | TGI [6]: > 100 µM | TGI [7]: > 100 µM | TGI [8]: > 100 µM | TGI [9]: > 100 µM | TGI [10]: > 100 µM

Reference: PubChem BioAssay (NCI)
